Experimental data from the NIST ThermoML archive (doi:10.1016/j.jct.2011.02.002).
± gives the expanded uncertainty stated by the source.

Test: molar heat capacity at constant pressure
Conditions: 101.33 kPa, Crystal, Thermal relaxation technique

[Hf+4].[O-2].[O-2] [hafnium(IV) oxide]
Conditions	molar heat capacity at constant pressure [J/K/mol]
1.92 K	0.0006 ± 0.0001
2 K	0.00065 ± 8.1e-05
2.04 K	0.0007 ± 0.0001
2.19 K	0.0009 ± 0.0001
2.48 K	0.0011 ± 0.0001
2.8 K	0.0015 ± 0.0002
3.09 K	0.002 ± 0.0002
3.4 K	0.0027 ± 0.0003
3.77 K	0.0037 ± 0.0004
4.17 K	0.0048 ± 0.0005
4.63 K	0.0065 ± 0.0007
5 K	0.00802 ± 0.00082
5.17 K	0.0091 ± 0.0009
5.74 K	0.0118 ± 0.0012
6.4 K	0.0162 ± 0.0016
7.11 K	0.022 ± 0.0022
7.9 K	0.0304 ± 0.003
8.79 K	0.0411 ± 0.0041
9.77 K	0.0569 ± 0.0057
10 K	0.061 ± 0.006
10.87 K	0.0795 ± 0.008
12.08 K	0.1132 ± 0.011
13.43 K	0.1598 ± 0.016
14.85 K	0.2256 ± 0.023
16.63 K	0.3276 ± 0.033
18.43 K	0.4834 ± 0.048
20 K	0.63 ± 0.01
20.37 K	0.6725 ± 0.014
22.69 K	0.967 ± 0.019
25.26 K	1.369 ± 0.028
28.1 K	1.905 ± 0.038
30 K	2.3 ± 0.05
31.26 K	2.569 ± 0.052
34.79 K	3.429 ± 0.069
38.68 K	4.469 ± 0.09
40 K	4.82 ± 0.1
43 K	5.684 ± 0.11
47.81 K	7.049 ± 0.14
50 K	7.72 ± 0.15
53.14 K	8.65 ± 0.17
59.07 K	10.45 ± 0.21
65.65 K	12.39 ± 0.25
72.95 K	14.5 ± 0.29
81.06 K	16.95 ± 0.34
90.05 K	19.69 ± 0.39
100 K	22.26 ± 0.45
100.01 K	22.35 ± 0.45
110.26 K	25.03 ± 0.5
120.29 K	27.43 ± 0.55
130.3 K	29.98 ± 0.6
140.32 K	32.44 ± 0.65
150 K	34.61 ± 0.69
150.53 K	34.59 ± 0.69
160.66 K	36.82 ± 0.74
170.61 K	38.83 ± 0.78
180.78 K	40.81 ± 0.82
190.96 K	42.62 ± 0.85
200 K	44.22 ± 0.88
201.26 K	44.45 ± 0.89
211.45 K	46.16 ± 0.92
221.7 K	48.01 ± 0.96
231.89 K	49.47 ± 0.99
242.02 K	50.89 ± 1
250 K	51.9 ± 1
252.09 K	52.39 ± 1
262.17 K	53.45 ± 1.1
272.31 K	54.56 ± 1.1
273.15 K	54.95 ± 1.1
282.4 K	55.7 ± 1.1
292.46 K	56.89 ± 1.1
298.15 K	57.73 ± 1.1
302.51 K	58.63 ± 1.2
